Values joined by “and” are separate entries in the source; they are usually repeats but may differ in a detail not shown here. Equal entries are not always repeated.
Legend:
HepaRG cells [1] = assay: Cell viability (MTT assay) of HepaRG cells with and without transporter inhibitors; type: cell-based, human; conditions: HepaRG
Protocol: (§1) In the case of TEA, cells were pre-incubated 24 h prior to PA treatment. The inhibitors were applied anew at PA incubation.
(§2) To analyze the cytotoxic effects of PAs on HepaRG cells with non-inhibited and inhibited hepatic transporters, the cells were seeded at a density of 9000 cells per well in the inner 60 wells of a 96-well plate and cultivated as described in Section 4.2. After four weeks of cultivation, FBS concentration in the cell culture medium was reduced to 2% for 48 h prior incubation. Thereby, inhibitory effects of peptide growth factors from the FBS on xenobiotic-metabolizing enzymes were minimized. […] The cells were pre-incubated with pharmacological inhibitors as described in Section 4.3. […] Cell viability was analyzed via the MTT test. 10 µl MTT reagent (5 mg/mL MTT dissolved in phosphate-buffered saline, PBS) was added per well and incubated for 1 h at 37 °C. The supernatant was discarded, and the violet formazan crystals dissolved in 130 µL desorption solution (0.7% sodium dodecyl sulfate in propan-2-ol). After shaking for 20 min (under protection from light), absorbance was measured on a TecanM200Pro spectrometer (Tecan Group Ltd., Männedorf, Switzerland) at a wavelength of 570 nm, along with a reference wavelength of 630 nm.

HepaRG cells [2] = assay: PA and PANO content in cell culture medium of HepaRG cells upon pharmacological transporter inhibition (LC-MS/MS); type: in vitro ADME, human; conditions: HepaRG, 2.5 µM PA, 4, 8, 24 h; CsA 10 µM, Ko143 5 µM, MK-571 50 µM, Qu 100 µM, TEA 3 mM
Protocol: as §1
(§3) In order to measure time-dependent depletion of PA and PANO content in cell culture medium, cells were seeded at a density of 0.2 × 10^6 cells per well in a 6-well plate and cultivated as described in Section 4.2. After four weeks of cultivation, cells were adapted to serum-free medium and medium substituted with insulin, transferrin, selenium (ITS) serum extender (Capricorn Scientific, Ebsdorfergrund, Germany) 48 h prior to PA incubation for optimal LC-MS/MS measurements. […] Samples were taken after 2 h, 4 h, 8 h and 24 h.
(§4) Briefly, chromatographic separation of PA/PANO analytes was achieved on a 50 × 2.1 mm Kinetex ™ 2.6 μm CoreShell EVO C18 100 Å column protected by a SecurityGuard ™ ULTRA EVO C 18 2.1 mm guard column (both Phenomenex, Aschaffenburg, Germany) at a flow rate of 0.4 mL/min on a Shimadzu high performance liquid chromatography (HPLC) apparatus (LC-20AB, SIL-20AC HT, CTO-20AC, CBM-20A, Duisburg, Germany) coupled to an API4000 triple quadrupole MS (Sciex, Darmstadt, Germany). The following MS parameters were used for measurements in positive electrospray ionisation (ESI+) mode: ionisation voltage 2500 V, nebuliser gas 50 psi, heating gas 50 psi, curtain gas 30 psi, temperature 600 °C, collision gas level 7. The substance specific parameters are summarized in Kaltner et al. 2019 [79].

[3] = Cell viability (MTT assay) of HepaRG cells with and without transporter inhibitors; type: cell-based, human; conditions: human, HepaRG cells, HepaRG, no PA, inhibitor alone 24 h: CsA 10 µM, Ko143 5 µM, MK571 50 µM, Qu 100 µM, TEA 3 mM; read-out: Cell viability (MTT), percent of solvent control, Mean [%]
Protocol: as §1, §2

SLC22A1 = target: T1, SLC22A1 (Homo sapiens, UniProt O15245); assay: ASP+ (SLC22A1 substrate) uptake measurement in HepaRG cells; type: cell-based; conditions: for fluorescence [%], MW [%]: solv ctrl = 100; for reduction of ASP+ (SLC22A1 substrate) uptake: Qu 100 µM, TEA 3 mM, 1 µM ASP+
T1 construct: For measuring the uptake of ASP^+ in HepaRG cells incubated with PAs; endogenous in cells; host or cells: differentiated HepaRG cells (human hepatoma)
T1 sequence (O15245 1-554): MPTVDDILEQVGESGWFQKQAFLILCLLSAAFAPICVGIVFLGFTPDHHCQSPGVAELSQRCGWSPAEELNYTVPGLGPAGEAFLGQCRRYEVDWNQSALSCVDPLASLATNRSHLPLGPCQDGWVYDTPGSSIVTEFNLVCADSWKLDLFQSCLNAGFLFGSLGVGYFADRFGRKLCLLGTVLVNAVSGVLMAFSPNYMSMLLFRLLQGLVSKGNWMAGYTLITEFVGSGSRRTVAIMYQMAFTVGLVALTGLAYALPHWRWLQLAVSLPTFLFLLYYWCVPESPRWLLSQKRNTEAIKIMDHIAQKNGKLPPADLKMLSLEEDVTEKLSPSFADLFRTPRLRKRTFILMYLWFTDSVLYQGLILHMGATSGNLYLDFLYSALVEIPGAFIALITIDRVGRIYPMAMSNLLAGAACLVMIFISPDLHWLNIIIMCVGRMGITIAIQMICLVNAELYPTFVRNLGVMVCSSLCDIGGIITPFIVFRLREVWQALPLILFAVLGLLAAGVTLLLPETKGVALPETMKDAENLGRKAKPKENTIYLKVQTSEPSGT
Protocol: ASP^+ is an organic cationic mitochondrial dye that only fluoresces inside cells so that fluorescence measured in the cell culture medium can be neglected. […] In parallel, cells were incubated with Qu (100 µM) and TEA (3 mM) as mentioned in Section 4.3. After 24 h, cells were incubated with 1 µM ASP^+ in Hanks’ balanced salt solution (HBSS, Sigma-Aldrich, Taufkirchen, Germany) at 37 °C. Fluorescence was measured after 20 min at ASP^+-specific wavelength (λex = 475 nm and λem = 605 nm) on a TecanM200Pro spectrometer (Tecan Group Ltd., Männedorf, Switzerland) according to Ahlin et al., (2008).

HepaRG cells [4] = assay: Time-dependent PA depletion and PANO formation in cell culture medium of HepaRG cells at 37 °C and 4 °C (LC-MS/MS); conditions: for PA content in cell culture medium, Mean [%]: 700 nM PA, percent of initial PA concentration; for PANO formation in cell culture medium: 700 nM parent PA
Protocol: as §3, §4

Molecule: Triton X-100 [reference compound]
- Cell viability (MTT), percent of solvent control (HepaRG cells [1]; 0.01% Triton X-100 positive control, listed as pos ctrl): 2.774%

Molecule: C=C[C@H]1C[N@@]2CC[C@H]1C[C@@H]2[C@@H](O)c1ccnc2ccc(OC)cc12 [Qu, quinidine]
- effect of inhibitor on retrorsine and senecionine uptake and PANO formation (HepaRG cells [2]): striking effect on both retrorsine and senecionine uptake at all time points
- viability at 24 h [3]: 87.2%
- fluorescence [%], MW [%] (SLC22A1; 100 µM): 82.7588%
- reduction of ASP+ (SLC22A1 substrate) uptake (SLC22A1; HepaRG, 24 h): 18%

Molecule: C/C=C(/C)C(=O)O[C@H]1CCN2CC=C(COC(=O)[C@@](O)([C@@H](C)O)C(C)(C)O)[C@H]12 [Heliosupine, heliosupine]
- PA content in cell culture medium, Mean [%] (HepaRG cells [4]; HepaRG, 4 °C (cold), 2h): 91.4819%
- PA content in cell culture medium, Mean [%] (HepaRG cells [4]; HepaRG, 4 °C (cold), 4h): 87.9748%
- PA content in cell culture medium, Mean [%] (HepaRG cells [4]; HepaRG, 4 °C (cold), 8h): 89.7595%
- PA content in cell culture medium, Mean [%] (HepaRG cells [4]; HepaRG, 4 °C (cold), 24h): 78.8823%
- PA content in cell culture medium, Mean [%] (HepaRG cells [4]; HepaRG, 37 °C (warm), 0h): 95.6507%
- PA content in cell culture medium, Mean [%] (HepaRG cells [4]; HepaRG, 37 °C (warm), 2h): 59.8398%
- PA content in cell culture medium, Mean [%] (HepaRG cells [4]; HepaRG, 37 °C (warm), 4h): 37.2399%
- PA content in cell culture medium, Mean [%] (HepaRG cells [4]; HepaRG, 37 °C (warm), 8h): 12.933%
- PA content in cell culture medium, Mean [%] (HepaRG cells [4]; HepaRG, 37 °C (warm), 24h): 0.2071%
- reduction of PA content in the supernatant (HepaRG cells [4]; HepaRG, 37 °C, after 24 h, 700 nM): highest decline
- uptake and toxicity (grading) (HepaRG cells [4]; HepaRG, Figure 2a, toxicity grading with ref 41): strong
- PA in medium, Mean [%] (HepaRG cells [4]; cold, 0h): 100%
- PA in medium, single replicates (repl.) (HepaRG cells [4]; cold, 0h): 100%
- PA in medium, single replicates (repl.) (HepaRG cells [4]; cold, 2h): 95.0989% and 96.7114%
- PA in medium, Mean [%] (HepaRG cells [4]; cold, 4h): 98.142%
- PA in medium, single replicates (repl.) (HepaRG cells [4]; cold, 4h): 94.7313% and 89.2662% and 110.429%
- PA in medium, Mean [%] (HepaRG cells [4]; cold, 8h): 98.6729%
- PA in medium, single replicates (repl.) (HepaRG cells [4]; cold, 8h): 94.1093%
- PA in medium, Mean [%] (HepaRG cells [4]; cold, 24h): 85.6503%
- PA in medium, single replicates (repl.) (HepaRG cells [4]; cold, 24h): 84.4985% and 86.6382%
- PA in medium, Mean [%] (HepaRG cells [4]; warm, 0h): 100%
- PA in medium, single replicates (repl.) (HepaRG cells [4]; warm, 0h): 100%
- PA in medium, Mean [%] (HepaRG cells [4]; warm, 2h): 66.3099%
- PA in medium, single replicates (repl.) (HepaRG cells [4]; warm, 2h): 44.4302% and 65.8608% and 88.6387%
- PA in medium, Mean [%] (HepaRG cells [4]; warm, 4h): 41.9165%
- PA in medium, single replicates (repl.) (HepaRG cells [4]; warm, 4h): 27.0977% and 40.0579% and 58.5941%
- PA in medium, Mean [%] (HepaRG cells [4]; warm, 8h): 15.145%
- PA in medium, single replicates (repl.) (HepaRG cells [4]; warm, 8h): 8.52% and 13.2978% and 23.6169%
- PA in medium, Mean [%] (HepaRG cells [4]; warm, 24h): 0.2418%
- PA in medium, single replicates (repl.) (HepaRG cells [4]; warm, 24h): 0.3741% and 0.0766% and 0.2748%

Molecule: CC[N+](CC)(CC)CC [TEA, tetraethylammonium bromide]
- effect of inhibitor on retrorsine and senecionine uptake and PANO formation (HepaRG cells [2]): significantly reduced retrorsine uptake only after 8 and 24 h and senecionine uptake only after 8 h
- viability at 24 h [3]: 84.5%
- fluorescence [%], MW [%] (SLC22A1; 3mM): 36.1156%
- reduction of ASP+ (SLC22A1 substrate) uptake (SLC22A1; HepaRG, 24 h): up to 64%

Molecule: CN(C)C(=O)CCSC(SCCC(=O)O)c1cccc(/C=C/c2ccc3ccc(Cl)cc3n2)c1 (stereo not drawn) [MK-571, reference compound]
- effect of inhibitor on retrorsine and senecionine uptake and PANO formation (HepaRG cells [2]): decelerated retrorsine and senecionine uptake and PANO excretion, but to a lesser extent than CsA
- viability at 24 h [3]: 106%

Molecule: COc1ccc2c3c([nH]c2c1)[C@H](CC(C)C)N1C(=O)[C@H](CCC(=O)OC(C)(C)C)NC(=O)[C@@H]1C3 [Ko143, reference compound]
- effect of inhibitor on retrorsine and senecionine uptake and PANO formation (HepaRG cells [2]): did not alter retrorsine and senecionine uptake and PANO formation
- effect of inhibitor on PA-mediated cytotoxicity (HepaRG cells [1]; 250 µM retrorsine or senecionine, MTT, 24 h, versus 250 µM PA only): did not alter the cytotoxic effects of retrorsine and senecionine
- Cell viability (MTT), percent of solvent control, Mean [%] (HepaRG cells [1]; no PA, inhibitor alone 24 h: CsA 10 µM, Ko143 5 µM, MK571 50 µM, Qu 100 µM, TEA 3 mM): 98.3595%

Molecule: C/C=C1/C[C@@H](C)[C@](O)(CO)C(=O)OCC2=CC[N@@+]3([O-])CC[C@@H](OC1=O)[C@@H]23 [retrorsine N-oxide]
- PANO formation in cell culture medium (HepaRG cells [4]; HepaRG, 37 °C, up to 24 h): increased with time

Molecule: C/C=C1/C[C@@H](C)[C@@](C)(O)C(=O)OCC2=CC[N+]3([O-])CC[C@@H](OC1=O)[C@@H]23 (stereo partly drawn) [senecionine N-oxide]
- PANO formed in cold-incubated cells, of the applied mother compound (HepaRG cells [4]; HepaRG, 4 °C, 700 nM senecionine, up to 24 h, Figure 2d): < 1%
- PANO formation in cell culture medium (HepaRG cells [4]; HepaRG, 37 °C, up to 24 h): increased with time

Molecule: retrorsine
- fluorescence [%], MW [%] (SLC22A1; 1 µM): 89.2606%
- fluorescence [%], MW [%] (SLC22A1; 10 µM): 46.6068%
- fluorescence [%], MW [%] (SLC22A1; 50 µM): 25.7608%
- fluorescence [%], MW [%] (SLC22A1; 100 µM): 25.133%
- fluorescence [%], MW [%] (SLC22A1; 250 µM): 21.5057%
- interaction with SLC22A1 (SLC22A1; HepaRG): both inhibitors and substrates
- minimum concentration inhibiting uptake of the SLC22A1-specific substrate ASP+ (SLC22A1; HepaRG, 24 h): 10 µM

— PMC8067754, “Active Transport of Hepatotoxic Pyrrolizidine Alkaloids in HepaRG Cells” (International Journal of Molecular Sciences, 2021)
